From PubChem BioAssay (NCI)
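GI50 marks 50% less growth. The concentration for full growth arrest is given as TGI.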

Tests used:
Assay in all cases: DTP human tumour cell line panel, 384-well format
[1] = tested on: NCI-H226 lung
[2] = tested on: NCI-H23 lung
[3] = tested on: NCI-H322M lung
[4] = tested on: NCI-H522 lung
[5] = tested on: OVCAR-3 ovarian
[6] = tested on: OVCAR-4 ovarian
[7] = tested on: OVCAR-5 ovarian
[8] = tested on: OVCAR-8 ovarian
[9] = tested on: PC-3 prostate
[10] = tested on: SF-268 CNS
[11] = tested on: SF-295 CNS
[12] = tested on: SF-539 CNS
[13] = tested on: SK-MEL-2 melanoma
[14] = tested on: SK-MEL-28 melanoma
[15] = tested on: SK-MEL-5 melanoma
[16] = tested on: SK-OV-3 ovarian
[17] = tested on: SN12C renal
[18] = tested on: SNB-19 CNS
[19] = tested on: SNB-75 CNS
[20] = tested on: SR leukemia
[21] = tested on: SW-620 colon
[22] = tested on: T-47D breast
[23] = tested on: TK-10 renal
[24] = tested on: U251 glioblastoma
[25] = tested on: UACC-257 melanoma
[26] = tested on: UACC-62 melanoma
[27] = tested on: UO-31 renal

CNC(=O)c1cc2c(Oc3ccc(NC(=O)C4(C(=O)Nc5ccc(F)cc5)CC4)cc3)ccnc2cc1OC
TGI [1]: 6.07 µM
GI50 [2]: 0.546 µM
TGI [2]: 4.73 µM
GI50 [3]: 2.64 µM
TGI [3]: 8.79 µM
GI50 [4]: 1.96 µM
TGI [4]: 5.53 µM
GI50 [5]: 2.56 µM
TGI [5]: 12.4 µM
GI50 [6]: 3.87 µM
TGI [6]: > 100 µM
GI50 [7]: 3.35 µM
TGI [7]: > 100 µM
GI50 [8]: 3.59 µM
TGI [8]: > 100 µM
GI50 [9]: 3.94 µM
TGI [9]: > 100 µM
GI50 [10]: 3.72 µM
TGI [10]: > 100 µM
GI50 [11]: 0.471 µM
TGI [11]: 8.18 µM
GI50 [12]: 0.18 µM
TGI [12]: 3.23 µM
GI50 [13]: 2.19 µM
TGI [13]: 5.67 µM
GI50 [14]: 2.9 µM
TGI [14]: > 100 µM
GI50 [15]: 1.43 µM
TGI [15]: 4.45 µM
GI50 [16]: 1.83 µM
TGI [16]: 5.63 µM
GI50 [17]: 0.507 µM
TGI [17]: 8.21 µM
GI50 [18]: 16.2 µM
TGI [18]: > 100 µM
GI50 [19]: 1.08 µM
TGI [19]: 3.01 µM
GI50 [20]: 1.64 µM
TGI [20]: 3.08 µM
GI50 [21]: 2.72 µM
TGI [21]: 10.4 µM
GI50 [22]: 1.81 µM
TGI [22]: 9.37 µM
GI50 [23]: 2.85 µM
TGI [23]: 14.1 µM
GI50 [24]: 4.56 µM
TGI [24]: > 100 µM
GI50 [25]: 2.35 µM
TGI [25]: 20.5 µM
GI50 [26]: 1.86 µM
TGI [26]: 5.52 µM
GI50 [27]: 1.99 µM
TGI [27]: 4.9 µM
